# In patent publication US6521405B1, “Cell-free replication system and uses thereof” (Cancer Research Campaign Technology Limited, priority 1997, dated 2003):
# Test system: G1 NIH 3T3 nuclei
# Assay: Cell-free DNA replication assay: G1 nuclei in HeLa S phase cytosol, biotin-dUTP incorporation, percentage of nuclei replicating (staining yellow)
# Assay type: biochemical, mouse
# Conditions: about 50% yellow staining nuclei without inhibitor
# Description: Nuclear templates were prepared by Dounce homogenisation as described previously, but from NIH 3T3 cells. G0, quiescent, cells were prepared by allowing NIH 3T3 cells to proliferate until they reached confluence and arrested their proliferation. They were released from quiescence by trypsinization and replating at ¼ the cell density. Cells were harvested as described previously (Krude et al., 1997) at measured times after release from quiescence. The 3T3 cells treated this way pass through G1 and begin to enter S phase synchronously about 21 hrs later. Nuclei and cytosolic extract were produced by hypotonically swelling the cells, scrape harvesting and Dounce-homogenizing. […]
# In vitro replication assays were performed in 50 μl reactions in 1.5 ml polypropylene tubes (Sarstedt or Eppendorf). […] Biotin-dUTP incorporation was detected by staining with fluorescein-streptavidin, whilst total DNA was visualized by propidium iodide. […] The percentage of nuclei replicating were calculated from many prints of confocal images. […]
# The competence of G1 NIH 3T3 nuclei to replicate was determined by repeating the collection of G1 nuclei at different times following release from G0 arrest and incubating the nuclei with S phase cytosol in accordance with the procedures of Example 1. […]
compound,measurement,setting,value
CC[C@H](CO)Nc1nc(NCc2ccccc2)c2ncn(C(C)C)c2n1 [roscovitin],decrease of yellow staining nuclei,1 μM,~5 fold
same,decrease of yellow staining nuclei,1 mM,~5 fold
